# Measured values from patent publication US20130253022A1 (FOX CHASE CHEMICAL DIVERSITY CENTER, INC., priority 2010, published 2013).
# Columns and labels:
# [1] = tested on: hippocampal neurons; assay: Prevention of reactive oxygen species accumulation from hydrogen peroxide (CDFFDA dye); type: cell-based; conditions: Rattus norvegicus, Hippocampal neuron; hydrogen peroxide for three hours, day 18 hippocampal cultures; read-out: Potency of Reduction in Oxidized CDFFDA (ROS) EC50
# Text: Cell cultures: all compounds were screened with dissociated hippocampal cultures derived from embryonic day 18 rats as the primary test system. With this preparation, primary neurons were used to test for prevention of reactive oxygen species accumulation in response to hydrogen peroxide. In brief, hippocampal tissue was obtained commercially through Brain Bits (Springfield, Ill.) and cultures prepared as previously described (Brewer, G. J. Serum-free B27/neurobasal medium supports differentiated growth of neurons from the striatum, substantia nigra, septum, cerebral cortex, cerebellum and dentate gyms. J. Neurosci. Res. 1995, 42, 674-683). […]
# Hydrogen peroxide and glutamate generate reactive oxygen species (ROS) such as superoxide anions, hydrogen peroxide and hydroxyl radicals which can reactively damage cellular components including DNA, lipids and proteins (Anderson et al. (2001). Green tea catechins partially protect DNA from OH radical-induced strand breaks and base damage through fast chemical repair of DNA radicals. Carcinogenesis 2001, 22:1189-1193). […] The cultures were then treated with 30 nM hydrogen peroxide for three hours and the fluorescence measured at Ex/Em 485/508. Background fluorescence was subtracted from values obtained from wells without cells.
# [2] = tested on: pentylenetetrazol-induced clonic seizures; assay: Subcutaneous pentylenetetrazol seizure test (scPTZ), mouse; type: in vivo, Carworth Farms No. 1 mice; conditions: pentylenetetrazol 85 mg/kg s.c., test compound intraperitoneally, read-out: Mouse PTZ ED50, s.c.
# Description: Methods to measure anticonvulsant activity: All tests were conducted by the Anticonvulsant Screening Program (ASP) of the National Institute of Neurological Disease and Stroke at the National Institutes of Health. The subcutaneous pentylenetetrazol (metrazol) seizure test (scPTZ). This model primarily identifies compounds that raise seizure threshold. The behavioral seizure produced is not typical of absence epilepsy but clonic in nature. With some minor exceptions, the pharmacological profile of the scPTZ seizure model is consistent with the human condition. The scPTZ test utilizes a dose of pentylenetetrazol (85 mg/kg in Carworth Farms No. 1 mice and 70 mg/kg in Sprague-Dawley rats). This produces clonic seizures lasting for a period of at least five seconds in 97 percent of animals tested. At the anticipated time of testing the convulsant is administered subcutaneously. The test compound is administered intraperitoneally in mice and orally in rats. Animals are observed over a 30 minute period. Absence of clonic spasms in the observed time period indicates a compound's ability to abolish the effect of pentylenetetrazol on seizure threshold (Swinyard E A. Laboratory evaluation of antiepileptic drugs: review of laboratory methods. Epilepsia, 1969, 10, 107-119).
# [3] = tested on: MES-induced seizure spread; assay: Maximal electroshock seizure (MES) test, rat; type: in vivo, rats; conditions: po
# Description: (§1) Seizure-related assays, Maximal electroshock test: The most definitive assay for anti-seizure activity is the maximal electroshock (MES) test (Swinyard, E. A. Laboratory evaluation of antiepileptic drugs: review of laboratory methods, Epilepsia, 1969, 10, 107-119). […] With both rodent assays, the duration of action is of high importance as well as the potency of the response.
# (§2) Methods to measure anticonvulsant activity: All tests were conducted by the Anticonvulsant Screening Program (ASP) of the National Institute of Neurological Disease and Stroke at the National Institutes of Health.
# (§3) The Maximal Electroshock Seizure (MES) or Maximal Seizure Pattern Test: The MES is a model for generalized tonic-clonic seizures (Putnam and Merritt. Experimental determination of the anticonvulsant properties of some phenyl derivatives. Science 1937, 85, 113-118). It is highly reproducible with consistent endpoints. The behavioral and electrographic seizures generated in this model are consistent with the human disorder. This model identifies those compounds which prevent seizure spread.
# (§4) In the MES test, an electrical stimulus of 0.2 s in duration (50 mA in mice and 150 mA in rat at 60 Hz) is delivered via corneal electrodes primed with an electrolyte solution containing an anesthetic agent. Mice are tested at 30 minutes and 4 hours following doses of 30, 100 and 300 mg/kg of test compound. Test compounds are administered intraperitoneally to the mice. Rats are tested at time intervals between 0.25 and 4 hours following a standard oral dose of 30 mg/kg. Abolition of the hindlimb tonic extensor component indicates the test compound's ability to inhibit MES-induced seizure spread.
# [4] = tested on: MES-induced seizure spread; assay: Maximal electroshock seizure (MES) test, mouse; type: in vivo, mice; conditions: for Duration of action MES: Mouse Maximal Electroshock (MES) test at 100 mg/kg, i.p.; for ED50: ip, mouse
# Description: as §1, §2, §3, §4
SMILES,EC50 [1],ED50 [2],ED50 [3],Duration of action MES [4],ED50 [4]
"NS(=O)(=O)NCC(F)(F)c1ccccc1F [Example 1, 2,2-Difluoro-2-(2-fluorophenyl)-ethyl-1-sulfamide]",0.03 nM,108 mg/kg,30 mg/kg,4 h,50 mg/kg
"NS(=O)(=O)NCC(F)(F)c1ccccc1Cl [Example 2, 2,2-Difluoro-2-(2-chlorophenyl)-ethyl-1-sulfamide]",0.01 nM,98 mg/kg,30 mg/kg,4 h,54 mg/kg
